Data on 42 compounds can be found in patent US12428415B2, “Matriptase 2 inhibitors and uses thereof” (Disc Medicine, Inc., priority 2018, dated 2025).

The inhibition is the percentage by which the read-out fell short of the control.

This experiment deals with T1, Human Recombinant Matriptase 2 (Homo sapiens, UniProt Q8IU80).
T1 construct: purchased Enzo Life Sciences (an in-house preparation was also used) ALX-201-752-1
T1 sequence (Q8IU80 1-811): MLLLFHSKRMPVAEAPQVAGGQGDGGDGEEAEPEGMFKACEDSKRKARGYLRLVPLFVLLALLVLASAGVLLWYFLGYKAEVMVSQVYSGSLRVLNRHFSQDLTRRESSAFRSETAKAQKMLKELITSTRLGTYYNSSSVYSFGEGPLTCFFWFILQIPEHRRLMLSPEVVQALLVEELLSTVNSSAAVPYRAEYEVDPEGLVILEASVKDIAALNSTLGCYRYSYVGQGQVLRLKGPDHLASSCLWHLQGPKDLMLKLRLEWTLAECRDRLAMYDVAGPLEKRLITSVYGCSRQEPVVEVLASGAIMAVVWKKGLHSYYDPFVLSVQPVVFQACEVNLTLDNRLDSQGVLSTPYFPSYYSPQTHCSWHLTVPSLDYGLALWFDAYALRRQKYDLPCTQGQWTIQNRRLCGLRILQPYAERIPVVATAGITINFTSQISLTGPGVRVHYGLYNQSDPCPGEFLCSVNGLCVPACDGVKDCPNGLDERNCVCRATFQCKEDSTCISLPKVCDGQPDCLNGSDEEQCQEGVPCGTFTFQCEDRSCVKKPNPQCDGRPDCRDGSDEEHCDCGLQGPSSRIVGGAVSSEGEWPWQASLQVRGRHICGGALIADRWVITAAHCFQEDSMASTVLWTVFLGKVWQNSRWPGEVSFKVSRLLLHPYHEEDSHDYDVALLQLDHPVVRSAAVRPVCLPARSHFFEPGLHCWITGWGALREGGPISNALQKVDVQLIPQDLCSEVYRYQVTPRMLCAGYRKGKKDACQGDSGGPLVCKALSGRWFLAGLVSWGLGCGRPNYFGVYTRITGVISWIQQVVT
Briefly: Matriptase 2 fluorescence based inhibition assay, Method A (100 mM TRIS pH 9, 1 mg/mL BSA). It is filed as biochemical. The following applies: 1 uM; Assay Used A; read-out: Mar-2 % inhibition at 1 uM. As for the experimental part: Test compounds were evaluated for their potential to inhibit Human Recombinant Matriptase 2 (in-house and commercial protein from Enzo Life Sciences—cat log -ALX-201-752-1) using fluorescence based assay. The concentration of Recombinant Matriptase 2 and the substrate used in the assay was: 7 nM (commercial) and 15 nM (Inhouse Matriptase 2) and 100 μM (Boc-Gln-Ala-Arg-7-amido-4-methyl coumarin hydrobromide—Cat log: B4153-Sigma) respectively. The assay buffer used was 100 mM TRIS pH 9, 1 mg/mL BSA. The assay was performed using 384 well black flat bottom plate from grenier (Cat log: 781076) at 25° C. The enzyme and compound was preincubated for 30 mins, plate was read 60 mins after substrate addition at wavelength Ex: 360/Em: 480 nm. The final assay volume was 20 μl. Stock solution of compounds were initially prepared in DMSO and appropriate dilutions were made for screening and IC50 determination (final DMSO conc in the assay was 1%). All the measurements were carried out using the Spectramax M5, Molecular devices. The compounds were screened at 1 and 10 μM concentration and IC50 was determined for the interested compounds.
To determine IC50 values, dose response curves were generated by plotting percentage inhibition as a function of inhibitor concentration and the data was fitted to sigmoidal non-linear regression equation (variable slope) using Graph Pad prism software V7.

With `N=C(N)c1ccc2cc(C(=O)NCc3cc(F)cc(F)c3)n(Cc3ccc(C(N)=O)cc3)c2c1` [Compound I-80], the inhibition at 1 µM is 0 to 25%. Consider `N=C(N)c1ccc2cc(C(=O)NCCc3ccccc3)n(Cc3ccc(C(N)=O)cc3)c2c1` [Compound I-81], for which the inhibition at 1 µM was in the range of 0 to 25%. With `CC(C)[C@H](NC(=O)c1cc2ccc(C(=N)N)cc2n1Cc1ccc(C(N)=O)cc1)c1ccccc1` [Compound I-82], the inhibition at 1 µM was in the range of 0 to 25%. Take `N=C(N)c1ccc2cc(C(=O)NCc3cccc(C(F)(F)F)c3)n(Cc3ccc(C(N)=O)cc3)c2c1` [Compound I-83]: the inhibition at 1 µM lay in the range of 0 to 25%.

With `N=C(N)c1ccc2cc(C(=O)Nc3ccc(Cl)cc3)n(Cc3ccc(C(N)=O)cc3)c2c1` [Compound I-84], the inhibition at 1 µM was 0 to 25%. `N=C(N)c1ccc2cc(C(=O)N[C@@H](CO)c3ccccc3)n(Cc3ccc(C(N)=O)cc3)c2c1` [Compound I-85]: the inhibition at 1 µM lay within 0 to 25%. Consider `N=C(N)c1ccc2cc(C(=O)N[C@H](CO)c3ccccc3)n(Cc3ccc(C(N)=O)cc3)c2c1` [Compound I-86], for which the inhibition at 1 µM was 0 to 25%.

`N=C(N)c1ccc2cc(C(=O)Nc3ccc(F)c(F)c3)n(Cc3ccc(C(N)=O)cc3)c2c1` [Compound I-87]: the inhibition at 1 µM is 0 to 25%.

As for `N=C(N)c1ccc2cc(C(=O)Nc3ccc4ncsc4c3)n(Cc3ccc(C(N)=O)cc3)c2c1` [Compound I-88], the inhibition at 1 µM is 0 to 25%. For `N=C(N)c1ccc2cc(C(=O)Nc3cc(F)c(F)c(F)c3)n(Cc3ccc(C(N)=O)cc3)c2c1` [Compound I-89], the inhibition at 1 µM is 0 to 25%. The same measure for `N=C(N)c1ccc2cc(C(=O)Nc3ccc(N4CCCC4)cc3)n(Cc3ccc(C(N)=O)cc3)c2c1` [Compound I-90]: 0 to 25%; for `N=C(N)c1ccc2cc(C(=O)Nc3cccc4c3CCC4)n(Cc3ccc(C(N)=O)cc3)c2c1` [Compound I-91]: 0 to 25%; for `N=C(N)c1ccc2cc(C(=O)Nc3ccc(C(=O)N4CCC4)cc3)n(Cc3ccc(C(N)=O)cc3)c2c1` [Compound I-92]: 0 to 25%. In the case of `CN(C)C(=O)COc1cccc(NC(=O)c2cc3ccc(C(=N)N)cc3n2Cc2ccc(C(N)=O)cc2)c1` [Compound I-93], the inhibition at 1 µM lay within 0 to 25%.

On to `C[C@H](NC(=O)c1cc2ccc(C(=N)N)cc2n1Cc1ccc(C(N)=O)cc1)c1ccc(F)c(F)c1` [Compound I-94], for which the inhibition at 1 µM was 0 to 25%.

Regarding `C[C@H](NC(=O)c1cc2ccc(C(=N)N)cc2n1Cc1ccc(C(N)=O)cc1)c1cccc(F)c1` [Compound I-95], the inhibition at 1 µM lay within 0 to 25%. `CC[C@@H](NC(=O)c1cc2ccc(C(=N)N)cc2n1Cc1ccc(C(N)=O)cc1)c1ccccc1` [Compound I-96]: the inhibition at 1 µM was in the range of 25 to 50%. Consider `N=C(N)c1ccc2cc(C(=O)Nc3ccc(N4CCC(F)(F)C4)cc3)n(Cc3ccc(C(N)=O)cc3)c2c1` [Compound I-97], for which the inhibition at 1 µM lay in the range of 25 to 50%. In the case of `C[C@H](NC(=O)c1cc2ccc(C(=N)N)cc2n1Cc1ccc(C(N)=O)cc1)c1ccc(Cl)cc1` [Compound I-98], the inhibition at 1 µM lay in the range of 0 to 25%. In the case of `CN(C)C(=O)COc1ccc(NC(=O)c2cc3ccc(C(=N)N)cc3n2Cc2ccc(C(N)=O)cc2)cc1` [Compound I-99] it was 25 to 50%. For the compound `N=C(N)c1ccc2cc(C(=O)NCc3cccc(N4CCCC4)c3)n(Cc3ccc(C(N)=O)cc3)c2c1` [Compound I-100], the inhibition at 1 µM lay in the range of 25 to 50%.

For the compound `N=C(N)c1ccc2cc(C(=O)Nc3ccc(N4CCCCC4)cc3)n(Cc3ccc(C(N)=O)cc3)c2c1` [Compound I-102], the inhibition at 1 µM was 0 to 25%. Take `CN1CCC(N(C)C(=O)c2cc3ccc(C(=N)N)cc3n2Cc2ccc(C(N)=O)cc2)C1` (stereo not drawn) [Compound I-103, 6-Carbamimidoyl-1-(4-carbamoylbenzyl)-N-methyl-N-(1-methylpyrrolidin-3-yl)-1H-indole-2-carboxamide]: the inhibition at 1 µM lay within 0 to 25%. As to `N=C(N)c1ccc2cc(C(=O)Nc3ccc(N4CCCC4)c(F)c3)n(Cc3ccc(C(N)=O)cc3)c2c1` [Compound I-104], the inhibition at 1 µM was in the range of 0 to 25%. As to `N=C(N)c1ccc2cc(C(=O)Nc3ccc(N4CC[C@H](F)C4)cc3)n(Cc3ccc(C(N)=O)cc3)c2c1` [Compound I-105], the inhibition at 1 µM fell in the range of 25 to 50%. On to `N=C(N)c1ccc2cc(C(=O)Nc3ccc(C(=O)N4CC[C@H](F)C4)cc3)n(Cc3ccc(C(N)=O)cc3)c2c1` [Compound I-106], for which the inhibition at 1 µM fell in the range of 0 to 25%. `C[C@H](NC(=O)c1cc2ccc(C(=N)N)cc2n1Cc1ccc(C(N)=O)cc1)c1ccc(Cl)c(Cl)c1` [Compound I-107]: the inhibition at 1 µM lay within 0 to 25%. In the case of `N=C(N)c1ccc2cc(C(=O)Nc3cc(F)cc(N4CCCC4)c3)n(Cc3ccc(C(N)=O)cc3)c2c1` [Compound I-108] it was 0 to 25%. As for `CC(C)(NC(=O)c1cc2ccc(C(=N)N)cc2n1Cc1ccc(C(N)=O)cc1)c1ccc(Cl)cc1` [Compound I-109], the inhibition at 1 µM fell in the range of 0 to 25%. As for `N=C(N)c1ccc2cc(C(=O)Nc3cccc(N4CCCCC4)c3)n(Cc3ccc(C(N)=O)cc3)c2c1` [Compound I-110], the inhibition at 1 µM was 0 to 25%. As for `N=C(N)c1ccc2cc(C(=O)Nc3ccc(F)c(Br)c3)n(Cc3ccc(C(N)=O)cc3)c2c1` [Compound I-111], the inhibition at 1 µM is 0 to 25%. In the case of `N=C(N)c1ccc2cc(C(=O)NCc3ccc(N4CCCC4)cc3)n(Cc3ccc(C(N)=O)cc3)c2c1` [Compound I-112] it was 25 to 50%; in that of `C[C@@H](NC(=O)c1cc2ccc(C(=N)N)cc2n1Cc1ccc(C(N)=O)cc1)c1ccc(F)c(Cl)c1` [Compound I-113], 0 to 25%; in that of `N=C(N)c1ccc2cc(C(=O)Nc3ccc(CN4CCCC4)cc3)n(Cc3ccc(C(N)=O)cc3)c2c1` [Compound I-114], 25 to 50%.

On to `N=C(N)c1ccc2cc(C(=O)Nc3cc(F)ccc3F)n(Cc3ccc(C(N)=O)cc3)c2c1` [Compound I-115], for which the inhibition at 1 µM fell in the range of 0 to 25%. In the case of `NC(=O)c1ccc(Cn2c(C(=O)Nc3cccc(N4CCCC4)c3)cc3ccc(C(N)=O)cc32)cc1` [Compound I-117, 1-(4-Carbamoylbenzyl)-N^2-(3-(pyrrolidin-1-yl)phenyl)-1H-indole-2,6-dicarboxamide] it was 0 to 25%; in that of `COC(=O)NC(=N)c1ccc2cc(C(=O)Nc3ccc(N4CCCC4)cc3)n(Cc3ccc(C(N)=O)cc3)c2c1` [Compound I-118, Methyl ((1-(4-carbamoylbenzyl)-2-((4-(pyrrolidin-1-yl)phenyl)carbamoyl)-1H-indol-6-yl)(imino)methyl)carbamate], 0 to 25%; in that of `CCOC(=O)NC(=N)c1ccc2cc(C(=O)Nc3ccc(N4CCCC4)cc3)n(Cc3ccc(C(N)=O)cc3)c2c1` [Compound I-119], 0 to 25%. In the case of `CCOC(=O)NC(=N)c1ccc2cc(C(=O)Nc3cccc(N4CCCC4)c3)n(Cc3ccc(C(N)=O)cc3)c2c1` [Compound I-120], the inhibition at 1 µM lay in the range of 0 to 25%. On to `N=C(N)c1ccc2cc(C(=O)Nc3cccc(OCC4CC4)c3)n(Cc3ccc(C(N)=O)cc3)c2c1` [Compound I-121], for which the inhibition at 1 µM lay in the range of 0 to 25%. In the case of `N=C(N)c1ccc2cc(C(=O)Nc3cccc(N4CC[C@H](F)C4)c3)n(Cc3ccc(C(N)=O)cc3)c2c1` [Compound I-122] it was 0 to 25%; in that of `CO[C@H]1CCN(c2cccc(NC(=O)c3cc4ccc(C(=N)N)cc4n3Cc3ccc(C(N)=O)cc3)c2)C1` [Compound I-123], 0 to 25%.
